Values quoted from earlier work as cited in patent publication US20100280975A1, “SYSTEMS FOR CLINICAL TRIALS” (WisTa Laboratories Ltd., priority 2007, published 2010).

Conditions: placebo arm improved 3.2 units from baseline ADAS-cog; cited from earlier work

For `COCCOC(=O)C1=C(C)NC(C)=C(C(=O)OC(C)C)C1c1cccc(C#N)c1Cl` (stereo not shown) [MEM-1003], the “efficacy in clinical trial” value is given as “failed to demonstrate efficacy”.
